Counter-ions that a name gives are not always drawn. Bridge positions count the residues as written; N and C are the ends. Square brackets hold non-standard residues; d marks the D form. Peptide text beside a SMILES is read from it. PEG9 = NCCOCCOCCOCCOCCOCCOCCOCCOCCOCCC(=O)O; Pro(4-spirocPr) = O=C(O)[C@@H]1CC2(CC2)CN1; tBuAla = CC(C)(C)C[C@H](N)C(=O)O; Pen = CC(C)(S)[C@H](N)C(=O)O; NMeC = CN[C@@H](CS)C(=O)O; Sar = CNCC(=O)O
What was measured:
human MASP1 = biological target: T1, human MASP1 (Homo sapiens, UniProt P48740); assay: Biochemical human MASP1 assay (FRET substrate); conditions: average IC50
T1 construct: Ig-kappa secretion signal (N, cleaved yes); made in house; host or cells: HEK293 (ATCC No. CRL-1573)
T1 sequence (P48740 297-448): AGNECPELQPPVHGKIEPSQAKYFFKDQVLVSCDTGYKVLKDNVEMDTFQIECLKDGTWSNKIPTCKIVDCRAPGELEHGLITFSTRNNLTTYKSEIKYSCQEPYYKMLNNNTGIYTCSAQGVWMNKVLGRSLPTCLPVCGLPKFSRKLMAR
T1 sequence (P48740 449-699): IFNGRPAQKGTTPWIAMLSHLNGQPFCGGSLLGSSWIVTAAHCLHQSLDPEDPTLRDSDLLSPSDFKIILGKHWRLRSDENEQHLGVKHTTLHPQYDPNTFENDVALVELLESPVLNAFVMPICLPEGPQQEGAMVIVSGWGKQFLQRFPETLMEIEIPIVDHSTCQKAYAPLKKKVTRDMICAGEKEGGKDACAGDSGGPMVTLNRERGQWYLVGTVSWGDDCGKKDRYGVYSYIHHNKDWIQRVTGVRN
Source text: (§1) 2.1 Recombinant Expression and Protein Production of Recombinant Human MASP1 and MASP2 Active Proteases.
(§2) The MASP1 or MASP2 expression vectors were transfected into the HEK293 (ATCC No. CRL-1573) cell line using Lipofectamine LTX® Reagent (Thermo-Fischer), as described by the manufacturer. […] The MASP1 and MASP2 proteins were purified from the conditioned media by affinity chromatography on Ni-NTA Superflow resin (Qiagen) as described by the manufacturer.
2.2 Biochemical Human MASP1 Assay
(§3) Recombinant human MASP1 enzyme produced in the HEK 293 cells was diluted in the reaction buffer (50 mM HEPES pH 8,0; 100 mM NaCl; 0.01% CHAPS; 0.5 mM Gluthathione) to the concentration of 20 nM and 25 μl was transferred into each single well of 384-well white microtiter plate (Greiner Bio One 781075). 1 μl of the inhibitor compound solution (dissolved in DMSO, at the corresponding concentration) or pure DMSO as a control was added to the same wells. […] The microtiter plate was incubated for 60-120 min at the temperature of 32 C. The increase of fluorescence intensity was measured in appropriate fluorescence plate reader (e.g. TECAN Ultra) using excitation wavelength of 320 nm and emission wavelength of 420 nm. IC50 values were calculated from percentage of inhibition of human MASP1 activity as a function of test compound concentration.

Human C3-[…] = assay: C3 deposition assay, human serum on mannan-coated plates; format: biochemical; conditions: average IC50, read-out: Human C3-DEPOSITION SERUM IC50
Protocol: (§4) 3. C3 Deposition Assay (Human, Rat, Mouse, Dog, Mini-Pig)
(§5) The C3 deposition assay was conducted essentially as described (reference). Multi well plates (Greiner-Nunc 384 Maxi Sorp #464718) were coated over night with Mannan from Saccharomyces cerevisiae (Sigma M7504, 10 μg/mL in 0.05 M carbonate-bicarbonate buffer, pH 9.6) at 4° C. Wells were washed three times with TBS and subsequently incubated for 2 hours with 50 μL of 1% bovine serum albumin (BSA) in Tris-buffered saline (TBS) at 37° C. in order to block non-specific binding. After this step and each of the following incubation steps wells were washed three times with C3 wash buffer (TBS; 0.05% Tween 20; 5 mM CaCl2). […] When appropriately developed the color reaction was stopped by addition of 25 μL of stop solution (Sigma S5814) and quantified on a photometer by measuring absorption at a wavelength of 450 nm. Antibodies were diluted in C3 wash buffer supplemented with 0.5% BSA.

rat MASP1 = biological target: T2, rat MASP1 (Rattus norvegicus, UniProt Q8CHN8); assay: Biochemical rat MASP1 assay (FRET substrate); conditions: average IC50; recombinant rat MASP1, FRET substrate
T2 construct: Ig-kappa secretion signal (N, cleaved yes); made in house; host or cells: HEK293 (ATCC No. CRL-1573)
T2 sequence (Q8CHN8 302-453 limits assumed): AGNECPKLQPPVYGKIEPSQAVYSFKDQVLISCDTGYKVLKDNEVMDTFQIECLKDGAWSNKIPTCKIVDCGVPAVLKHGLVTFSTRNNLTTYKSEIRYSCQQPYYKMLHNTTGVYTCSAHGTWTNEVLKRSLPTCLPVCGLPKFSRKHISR
T2 sequence (Q8CHN8 454-704 limits assumed): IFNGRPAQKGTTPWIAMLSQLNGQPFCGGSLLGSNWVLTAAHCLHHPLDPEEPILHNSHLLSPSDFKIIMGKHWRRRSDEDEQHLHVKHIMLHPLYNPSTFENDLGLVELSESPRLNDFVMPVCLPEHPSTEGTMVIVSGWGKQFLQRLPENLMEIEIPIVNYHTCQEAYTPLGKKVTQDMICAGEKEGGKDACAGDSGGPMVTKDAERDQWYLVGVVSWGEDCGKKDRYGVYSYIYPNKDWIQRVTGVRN
Source text: (§6) 4. Biochemical Rat MASP-1 and MASP-2 Assay
(§7) 4.1 Recombinant Expression and Protein Production of Recombinant Human and Rat MASP1 and MASP2 Active Proteases.
A truncated cDNA sequence of rat MASP1 encoding the fragment corresponding to the amino acids 302-704 with an C-terminal His Tag and N-terminal Ig-kappa secretion signal (SEQ ID No: 4) was subcloned into the mammalian expression vector pcDNA3.1 (Invitrogen).
(§8) The MASP1 or MASP2 expression vectors were transfected into the HEK293 (ATCC No. CRL-1573) cell line using Lipofectamine LTX® Reagent (Thermo-Fischer), as described by the manufacturer. The mature form of the recombinant rat MASP1 and MASP2 proteases were secreted into the culture medium. The MASP1 and MASP2 proteins were purified from the conditioned media by affinity chromatography on Ni-NTA Superflow resin (Qiagen) as described by the manufacturer.
4.2 Biochemical Rat MASP1 Assay.
Recombinant rat MASP1 enzyme produced in the HEK 293 cells was diluted in the reaction buffer (50 mM HEPES pH 8,0; 100 mM NaCl; 0.01% CHAPS; 0.5 mM Gluthathione) to the concentration of 4 nM and 25 μl was transferred into each single well of 384-well white microtiter plate (Greiner Bio One 781075). 1 μl of the inhibitor compound solution (dissolved in DMSO, at the corresponding concentration) or pure DMSO as a control was added to the same wells. The enzymatic reaction was initiated by addition of 25 μl of 40 μM solution of the FRET substrate Dabcyl-[…]-Glu(Edans)-NH2 (SEQ ID NO: 8); (Dabcyl—4-((4-(dimethylamino)phenyl)azo)benzoic acid; Edans—5-[(2-Aminoethyl) amino]naphthalene-1-sulfonyl; custom synthesis by Jerini Peptide Technologies, Berlin) in the reaction buffer. The microtiter plate was incubated for 60-120 min at the temperature of 32 C. The increase of fluorescence intensity was measured in appropriate fluorescence plate reader (e.g. TECAN Ultra) using excitation wavelength of 340 nm and emission wavelength of 490 nm. IC50 values were calculated from percentage of inhibition of rat […] activity as a function of test compound concentration.

rat MASP2 = biological target: T3, rat MASP2 (Rattus norvegicus, UniProt Q9JJS8); assay: Biochemical rat MASP2 assay (FRET substrate); conditions: average IC50; recombinant rat MASP2, FRET substrate
T3 construct: Ig-kappa secretion signal (N, cleaved yes); made in house; host or cells: HEK293 (ATCC No. CRL-1573)
T3 sequence (Q9JJS8 296-443): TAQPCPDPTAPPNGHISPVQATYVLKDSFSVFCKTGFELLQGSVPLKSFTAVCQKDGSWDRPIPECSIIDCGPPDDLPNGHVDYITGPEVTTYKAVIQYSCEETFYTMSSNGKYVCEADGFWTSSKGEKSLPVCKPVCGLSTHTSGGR
T3 sequence (Q9JJS8 444-685): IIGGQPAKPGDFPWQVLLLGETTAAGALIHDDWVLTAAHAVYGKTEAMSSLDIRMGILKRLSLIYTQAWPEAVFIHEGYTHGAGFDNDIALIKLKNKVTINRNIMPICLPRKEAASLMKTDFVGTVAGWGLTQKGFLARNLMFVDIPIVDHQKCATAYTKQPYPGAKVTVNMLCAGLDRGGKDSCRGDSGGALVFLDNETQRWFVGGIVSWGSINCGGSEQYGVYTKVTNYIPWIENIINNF
Source text: as §6, §7, §8
4.3 Biochemical Rat MASP2 Assay.
Recombinant rat MASP2 enzyme produced in the HEK 293 cells was diluted in the reaction buffer (50 mM HEPES pH 8,0; 100 mM NaCl; 0.01% CHAPS; 0.5 mM Gluthathione) to the concentration of 20 nM and 25 μl was transferred into each single well of 384-well white microtiter plate (Greiner Bio One 781075). 1 μl of the inhibitor compound solution (dissolved in DMSO, at the corresponding concentration) or pure DMSO as a control was added to the same wells. The enzymatic reaction was initiated by addition of 25 μl of 30 μM solution of the FRET substrate Abz-IEGRTSED-(Lys)Dnp-NH2 (SEQ ID NO: 9); (ABZ—2-aminobenzoyl; DNP_2,4-dinitrophenyl; custom synthesis by Jerini Peptide Technologies, Berlin) in the reaction buffer. The microtiter plate was incubated for 60-120 min at the temperature of 32 C. The increase of fluorescence intensity was measured in appropriate fluorescence plate reader (e.g. TECAN Ultra) using excitation wavelength of 320 nm and emission wavelength of 420 nm. IC50 values were calculated from percentage of inhibition of rat […] activity as a function of test compound concentration.

rat C3-[…] = assay: C3 deposition assay, rat serum on mannan-coated plates; format: biochemical; conditions: average IC50
Protocol: as §4, §5

human MASP2 = biological target: T4, human MASP2 (Homo sapiens, UniProt O00187); assay: Biochemical human MASP2 assay (FRET substrate); conditions: average IC50
T4 construct: Ig-kappa secretion signal (N, cleaved yes); made in house; host or cells: HEK293 (ATCC No. CRL-1573)
T4 sequence (O00187 297-444): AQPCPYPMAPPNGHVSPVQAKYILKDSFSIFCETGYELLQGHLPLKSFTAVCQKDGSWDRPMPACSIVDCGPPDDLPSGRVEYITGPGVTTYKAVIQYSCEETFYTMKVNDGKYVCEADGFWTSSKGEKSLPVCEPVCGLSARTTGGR
T4 sequence (O00187 445-686): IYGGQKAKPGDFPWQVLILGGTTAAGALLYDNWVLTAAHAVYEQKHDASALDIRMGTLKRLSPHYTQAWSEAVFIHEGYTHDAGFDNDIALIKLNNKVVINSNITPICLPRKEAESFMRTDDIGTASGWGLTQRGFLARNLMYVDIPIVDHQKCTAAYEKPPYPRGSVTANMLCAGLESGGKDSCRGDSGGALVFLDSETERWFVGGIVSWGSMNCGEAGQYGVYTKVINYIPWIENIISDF
Source text: as §1, §2
2.3 Biochemical Human MASP2 Assay
as §3, with “MASP2” for “MASP1”, “340” for “320”, “490” for “420”

CCC(C)[C@H](NC(=O)[C@H]1NC(=O)[C@H]([C@@H](C)CC)NC(=O)[C@@H]2C[C@@H]3CCCC[C@@H]3N2C(=O)[C@@H]2CCCN2C(=O)[C@H](CC(C)C)NC(=O)[C@H](CO)NC(=O)[C@H](CCCNC(=N)N)NC(=O)[C@H](CO)NC(=O)[C@@H](NC(=O)[C@@H](NC(=O)[C@H](C)NC)[C@@H](C)CC)CSSC1(C)C)C(=O)N1CCC[C@H]1C(=O)N[C@@H](CC(=O)NCc1ccccc1)C(N)=O (stereo in doubt) [Example 462]
IC50 (human MASP1): 12 nM
IC50 (Human C3-[…]): 61 nM
IC50 (rat MASP1): 160 nM
IC50 (rat MASP2): 150 nM

CC[C@H](C)[C@H](NC(=O)[C@H](C)N)C(=O)N[C@H]1CSSC(C)(C)[C@@H](C(=O)N[C@H](C(=O)N2CCC[C@H]2C(=O)N[C@@H](CC(=O)O)C(=O)O)[C@@H](C)CC)NC(=O)[C@H]([C@@H](C)CC)NC(=O)[C@@H]2C[C@@H]3CCCC[C@@H]3N2C(=O)[C@@H]2CCCN2C(=O)[C@H](CC(C)C)NC(=O)[C@H](CO)NC(=O)[C@H](CCCNC(=N)N)NC(=O)[C@H](CO)NC1=O [Example 29, AIC+SRSLP-(Oic)-I-(Pen)+IPD-OH (HCl Salt)]
IC50 (human MASP1): 2.45 nM
IC50 (Human C3-[…]): 6.99 nM
IC50 (rat MASP1): 10.5 nM
IC50 (rat C3-[…]): 196 nM
IC50 (rat MASP2): 17.4 nM

CC[C@H](C)[C@H](NC(=O)CNC)C(=O)N[C@H]1CSSC(C)(C)[C@@H](C(=O)N[C@H](C(=O)N2CCC[C@H]2C(=O)NCCOCCOCCOCCOCCOCCOCCOCCOCCOCCC(N)=O)[C@@H](C)CC)NC(=O)[C@H]([C@@H](C)CC)NC(=O)[C@@H]2CCCN2C(=O)[C@@H]2CCCN2C(=O)[C@H](CC(C)(C)C)NC(=O)[C@H](CO)NC(=O)[C@H](CCCNC(=N)N)NC(=O)[C@H](CO)NC1=O [Example 44, ((N-Me)G)-IC+SRS-((tBu)A)-PPI-(Pen)+IP-(PEG9(31 Atoms))-NH2] (H-[Sar]ICSRS[tBuAla]PPI[Pen]IP[PEG9]-NH2; disulfide 3-11)
IC50 (Human C3-[…]): 68.5 nM
IC50 (rat MASP1): 87 nM
IC50 (human MASP2): 73 nM
IC50 (rat MASP2): 35 nM

CC[C@H](C)[C@H](NC(=O)[C@H](C)N)C(=O)N[C@H]1CSSC(C)(C)[C@@H](C(=O)N[C@H](C(=O)N2CCC[C@H]2C(=O)N[C@@H](CC(=O)O)C(N)=O)[C@@H](C)CC)NC(=O)[C@H]([C@@H](C)CC)NC(=O)[C@@H]2CC3(CC3)CN2C(=O)[C@@H]2CCCN2C(=O)[C@H](CC(C)(C)C)NC(=O)[C@H](CO)NC(=O)[C@H](CCCNC(=N)N)NC(=O)[C@H](CO)NC1=O [Example 45, AI-C+SRS-((tBu)A)-P-((6S)-5-Azaspiro[2.4]heptane-6-carboxylic acid)-I(Pen)+IPD-NH2] (H-AICSRS[tBuAla]P[Pro(4-spirocPr)]I[Pen]IPD-NH2; disulfide 3-11)
IC50 (human MASP1): 1.83 nM
IC50 (Human C3-[…]): 18.6 nM
IC50 (rat MASP1): 40 nM
IC50 (human MASP2): 24.5 nM

CC[C@H](C)[C@H](NC(=O)[C@H](C)N)C(=O)N[C@H]1CSSC[C@@H](C(=O)N[C@H](C(=O)N2CCC[C@H]2C(=O)N[C@@H](CC(=O)O)C(N)=O)[C@@H](C)CC)N(C)C(=O)[C@H]([C@@H](C)CC)NC(=O)[C@@H]2CCCN2C(=O)[C@@H]2CCCN2C(=O)[C@H](CC(C)(C)C)NC(=O)[C@H](CO)NC(=O)[C@H](CCCNC(=N)N)NC(=O)[C@H](CO)NC1=O [Example 48, AIC+SRS-((tBu)A)-PPI-((N-Me)C)+IPD-NH2] (H-AICSRS[tBuAla]PPI[NMeC]IPD-NH2; disulfide 3-11)
IC50 (human MASP1): 1.95 nM
IC50 (Human C3-[…]): 102 nM
IC50 (rat MASP1): 51.5 nM
IC50 (human MASP2): 225 nM

AIC+SRSLP-(Oic)-I-(Pen)+IPD-NH2 [Example 27]
IC50 (Human C3-[…]): 8.5 nM
IC50 (rat C3-[…]): 146 nM

AIC+SRSLP-(Oic)-I-(Pen)+IPD-OH [Example 5]
IC50 (Human C3-[…]): 10.3 nM
IC50 (rat C3-[…]): 214 nM

Reference: patent US11667675B2, “MASP inhibitory compounds and uses thereof” (Bayer Aktiengesellschaft, priority 2019, dated 2023)
